From the NIST ThermoML archive (doi:10.1021/je300997v)
Numbers after ± are expanded uncertainties.

Experiment: xn = mol fraction of the nth substance listed
Settings: 101 kPa, Liquid; for viscosity: Capillary tube (Ostwald / Ubbelohde) method; for mass density: Pycnometric method; for electrical conductivity: conductivity meter

C[N+](C)(C)CCO.[Cl-] [choline chloride] + Oc1ccccc1
Settings | electrical conductivity [S/m] | mass density [kg/m3] | viscosity [mPa·s]
293.2 K, x2 = 0.6667 | 0.14 ± 0.003 | 1099.5 ± 2.4 | 120.77 ± 7.6
293.2 K, x2 = 0.75 | 0.238 ± 0.005 | 1094.8 ± 2.4 | 57.84 ± 3.6
293.2 K, x2 = 0.8 | 0.275 ± 0.006 | 1091.8 ± 2.4 | 40.23 ± 2.5
293.2 K, x2 = 0.8333 | 0.281 ± 0.006 | 1089.8 ± 2.4 | 31.96 ± 2
293.2 K, x2 = 0.8571 | 0.273 ± 0.005 | 1088.5 ± 2.4 | 27.03 ± 1.7
298.2 K, x2 = 0.6667 | 0.205 ± 0.004 | 1096.7 ± 2.4 | 90.33 ± 5.6
298.2 K, x2 = 0.75 | 0.314 ± 0.006 | 1092.1 ± 2.4 | 44.64 ± 2.8
298.2 K, x2 = 0.8 | 0.345 ± 0.007 | 1089.3 ± 2.4 | 31.55 ± 1.9
298.2 K, x2 = 0.8333 | 0.347 ± 0.007 | 1087 ± 2.4 | 25.25 ± 1.6
298.2 K, x2 = 0.8571 | 0.338 ± 0.007 | 1085.2 ± 2.4 | 21.43 ± 1.3
303.2 K, x2 = 0.6667 | 0.265 ± 0.005 | 1093 ± 2.4 | 68.41 ± 4.2
303.2 K, x2 = 0.75 | 0.388 ± 0.008 | 1089 ± 2.4 | 35.17 ± 2.2
303.2 K, x2 = 0.8 | 0.421 ± 0.008 | 1086 ± 2.4 | 25.2 ± 1.6
303.2 K, x2 = 0.8333 | 0.425 ± 0.009 | 1083.8 ± 2.4 | 19.75 ± 1.2
303.2 K, x2 = 0.8571 | 0.409 ± 0.008 | 1081.8 ± 2.4 | 16.82 ± 1
308.2 K, x2 = 0.6667 | 0.337 ± 0.007 | 1090.1 ± 2.4 | 53.43 ± 3.3
308.2 K, x2 = 0.75 | 0.477 ± 0.01 | 1085.8 ± 2.4 | 28.22 ± 1.7
308.2 K, x2 = 0.8 | 0.507 ± 0.01 | 1081.9 ± 2.4 | 20.25 ± 1.2
308.2 K, x2 = 0.8333 | 0.508 ± 0.01 | 1080.3 ± 2.4 | 16.16 ± 0.99
308.2 K, x2 = 0.8571 | 0.487 ± 0.01 | 1078.2 ± 2.4 | 13.76 ± 0.84
313.2 K, x2 = 0.6667 | 0.416 ± 0.008 | 1087.3 ± 2.4 | 42.42 ± 2.6
313.2 K, x2 = 0.75 | 0.576 ± 0.012 | 1082.9 ± 2.4 | 23.08 ± 1.4
313.2 K, x2 = 0.8 | 0.602 ± 0.012 | 1079.5 ± 2.4 | 16.71 ± 1
313.2 K, x2 = 0.8333 | 0.599 ± 0.012 | 1076.1 ± 2.4 | 13.44 ± 0.82
313.2 K, x2 = 0.8571 | 0.574 ± 0.011 | 1074.5 ± 2.4 | 11.45 ± 0.7
318.2 K, x2 = 0.6667 | 0.509 ± 0.01 | 1084.3 ± 2.4 | 34.34 ± 2.1
318.2 K, x2 = 0.75 | 0.677 ± 0.014 | 1079.5 ± 2.4 | 19.14 ± 1.2
318.2 K, x2 = 0.8 | 0.706 ± 0.014 | 1076.3 ± 2.4 | 14 ± 0.86
318.2 K, x2 = 0.8333 | 0.696 ± 0.014 | 1073.6 ± 2.4 | 11.26 ± 0.69
318.2 K, x2 = 0.8571 | 0.666 ± 0.013 | 1071.7 ± 2.4 | 9.46 ± 0.58
